The text below walks through data of patent publication US9814758B2, “Inhibitors of apoptosis and uses thereof” (CENTRE NATIONAL DE LA RECHERCHE SCIENTIFIQUE-CNRS, priority 2010, dated 2017).

For one test, the system named is C2C12 cells. As to the kind of experiment: STS-induced DNA fragmentation (Cell Death detection ELISA PLUS) in C2C12 cells. Type of test: cell-based, mouse. The following applies: murine C2C12 (model for muscle cells); FIG. 5A. As for the experimental part: FIG. 5: In vitro evaluation of the anti-apoptotic activity of CPPs and CPP-conjugates. Workflow and quantitation of DNA fragmentation in (A) C2C12 cells, (B) primary cardiomyocytes, (C) H9c2 cells and (D) NG108-15 cells. Data were normalized to 100% STS. Data shown are the means±SEM, with n≧5. Cells were seeded in 24-well plates and grown overnight. The next day, the cells were incubated with STS alone or with STS+1 μM peptide (in OPTI-MEM) (OPTI-MEM® is a modification of Eagle's Minimum Essential Media, buffered with HEPES and sodium bicarbonate, and supplemented with hypoxanthine, thymidine, sodium pyruvate, L-glutamine, trace elements, and growth factors) (STS concentration and incubation time for each cells are given in the figure). […] Following the regeneration phase, the cells were lyzed and DNA fragmentation was detected according to manufacturer's instructions (Cell Death detection ELISA^PLUS kit—Roche Diagnostics). […]
Thereafter, the capacity of these peptides to inhibit apoptosis induced by staurosporine was evaluated. Apoptosis was determined using the Cell Death detection ELISA^PLUS kit (Roche) measuring the DNA fragmentation.
The anti-apoptotic effects of the peptides were also analyzed in murine NG118-15 (model for neuronal cells) (FIG. 5D), in murine C2C12 (model for muscle cells) (FIG. 5A) and in rat H9c2 (model for cardiac cells) (FIG. 5C). […]
For orientation: In an ELISA, binding on a coated surface is turned into a signal by an enzyme label.

Test [1] has as its target T1, His-tagged intracellular region of Fas receptor (Homo sapiens, UniProt P25445).
T1 construct: His-tagged intracellular region of Fas receptor [10 μg/ml]; purchased Sigma
T1 sequence (P25445 191-335 limits assumed): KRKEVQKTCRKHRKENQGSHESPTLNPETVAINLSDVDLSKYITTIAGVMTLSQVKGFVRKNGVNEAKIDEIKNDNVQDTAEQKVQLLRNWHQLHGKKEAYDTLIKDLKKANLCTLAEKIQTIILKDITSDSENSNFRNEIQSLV
As to the kind of experiment: SPOT peptide array, enzyme-linked blot with His-tagged Fas. Type of test: binding. The following applies: Fas 10 μg/ml; anti-His/anti-mouse-HRP. The protocol: FIG. 1: Determination of the DAXX epitope by SPOT synthesis. (A) The amino acid sequence of DAXX was dissected in overlapping peptide arrays (pepscan; 15 mer peptides with a shift of 3 amino acids) and analyzed in enzyme-linked blot. […] Incubation conditions: His-tagged intracellular region of Fas receptor [10 μg/ml]; antibodies: anti-His-(mouse) (Sigma H1029; 1:6,000)/anti-mouse-HRP (Calbiochem 401207; 1:2,000), exposure time: 1 minute. (B) Alignment of the human DAXX sequence comprising the 16-mer KKSRKEKKQTGSGPLG (=DAXXp of SEQ ID NO: 5) with the DAXX sequences of other species (mouse, rat, dog (CANFA) and green monkey (CHLAE)).
FIG. 2: Determination of the optimal length of the DAXX epitope (=DAXXp) by SPOT synthesis. (A) The DAXXp-211 and DAXXp-209 peptides (of SEQ ID NO: 2 and SEQ ID NO: 3, respectively) were successively shortened by one amino acid residue at the N-terminus, at the C-terminus and both at the N- and the C-termini, and analyzed using enzyme-linked blot. […] Incubation conditions: His-tagged intracellular region of Fas receptor [10 μg/ml]; antibodies: anti-His-(mouse) (Sigma H1029; 1:6,000)/anti-mouse-HRP (Calbiochem 401207; 1:2,000), exposure time: 1 minute. (B) Alignment of both peptide sequences DAXXp-211 and DAXXp-209; corresponding to the brightest spots, to determine the optimal DAXX peptide sequence.
FIG. 8: Determination of FADDp15 and its anti-apoptotic effect in cardiomyocytes. (A) The protein sequences of FADD were dissected in overlapping peptide arrays (pepscan; 15 mer peptides with a shift of 3 amino acids) and analyzed using enzyme-linked blot. […] (B) The peptide sequence of FADDp-11 (=FADDp15=SEQ ID NO: 9) was successively shortened by one amino acid residue at the C-terminus, the N-terminus, or at both the C-terminus and the N-terminus, and analyzed using enzyme-linked blot. […] The shortest FADD epitope (a 9-mer with sequence KRKLERVQS (=FADDp=SEQ ID NO: 12)) corresponded to spot No. 24. Incubation conditions: His-tagged intracellular region of Fas receptor [10 μg/ml]; antibodies: anti-His-(mouse) (Sigma H1029; 1:6,000)/anti-mouse-HRP (Calbiochem 401207; 1:2,000), exposure time: 1 minute.
The peptides were synthesized on N-modified CAPE-membranes (Bhargava et al, Mol. Recognit, 2002, 15: 145) and prepared by a MultiPep SPOT-robot (INTAVIS Bioanalytical Instruments AG, Cologne, Germany). Array design was performed with the aid of the in-house software LISA 1.71. The synthesis started with spot definition using a standard protocol [Frank, Tetrahedron, 1992, 48: 9217), followed by the coupling of a solution of Fmoc-cysteine-(Trt)-Opfp (0.3M) in N-methylpyrolidone (NMP) and Fmoc-alanine-Opfp (double coupling, 15 min reaction each). After Fmoc cleavage with piperidine in DMF (20%), 4-hydroxymethylphenoxyacetic acid (HMPA) dissolved in dimethylformamide (DMF, 0.6M solution) and activated with EEDQ (1.1 equiv) was added, and samples were directly spotted on the membrane (4× coupling, 15 min reaction each). The membrane was acetylated with acetic anhydride in DMF (2%), washed with DMF (5×3 min), ethanol (2×3 min), and diethyl ether (2×3 min), and finally air dried. Solutions of Fmoc-amino acid-OH (0.4M) activated with 1,1′-carbonyldiimidazole (CDI, 3 equiv) in DMF were spotted on the membrane (4× coupling, 15 min reaction time each). Proline, tyrosine, and glutamine were activated with 1,1′-carbonyldi(1,2,4-triazole) (CDT). The Fmoc group was removed from the spots, and the peptide sequences were completed using the standard SPOT synthesis protocol (Frank, Tetrahedron, 1992, 48: 9217) followed by a N-terminal tag with β-alanine.
The primary sequence of the DAXX protein (SEQ ID NO: 1) was dissected in overlapping 15 mer peptides (3 amino acids shift) and all the peptides (243 peptides) were synthesized on cellulose membrane by SPOT synthesis as described above. The peptide library was incubated with the His-tagged intra-cellular region of the Fas receptor (Sigma). […]

No end group written: not given here.

In the case of “GRKKRRQRRRPPQKKSRKEKKQTGSGPLG-NH2 [Tat-DAXXp, GRKKRRQRRRPPQ-KKSRKEKKQTGSGPLG-NH2]”, the “reduction in DNA fragmentation” value in the test with C2C12 cells is given as 24%.

As to “KKSRKEKKQTGSGPLG-NH2 [DAXXp, KKSRKEKKQTGSGPLG-NH2]”, the “interaction with the Fas receptor / signal intensity of the spot” value in test [1] is recorded as “interact with the Fas receptor”.
